Experimental data: ChEMBL document CHEMBL5131383, “Structure-based design, synthesis, and evaluation of inhibitors with high selectivity for PARP-1 over PARP-2” (Eur J Med Chem, 2022)
Active and inactive are the calls of the source. No cut-off for these calls is given here.

Target: T1, Poly [ADP-ribose] polymerase 1 (Homo sapiens, UniProt P09874)
Test: Inhibition of human PARP1 using NAD+ as substrate at 5 nM incubated for 1 hr by ELISA relative to control
Conditions: not given

T1 sequence (P09874 whole entry): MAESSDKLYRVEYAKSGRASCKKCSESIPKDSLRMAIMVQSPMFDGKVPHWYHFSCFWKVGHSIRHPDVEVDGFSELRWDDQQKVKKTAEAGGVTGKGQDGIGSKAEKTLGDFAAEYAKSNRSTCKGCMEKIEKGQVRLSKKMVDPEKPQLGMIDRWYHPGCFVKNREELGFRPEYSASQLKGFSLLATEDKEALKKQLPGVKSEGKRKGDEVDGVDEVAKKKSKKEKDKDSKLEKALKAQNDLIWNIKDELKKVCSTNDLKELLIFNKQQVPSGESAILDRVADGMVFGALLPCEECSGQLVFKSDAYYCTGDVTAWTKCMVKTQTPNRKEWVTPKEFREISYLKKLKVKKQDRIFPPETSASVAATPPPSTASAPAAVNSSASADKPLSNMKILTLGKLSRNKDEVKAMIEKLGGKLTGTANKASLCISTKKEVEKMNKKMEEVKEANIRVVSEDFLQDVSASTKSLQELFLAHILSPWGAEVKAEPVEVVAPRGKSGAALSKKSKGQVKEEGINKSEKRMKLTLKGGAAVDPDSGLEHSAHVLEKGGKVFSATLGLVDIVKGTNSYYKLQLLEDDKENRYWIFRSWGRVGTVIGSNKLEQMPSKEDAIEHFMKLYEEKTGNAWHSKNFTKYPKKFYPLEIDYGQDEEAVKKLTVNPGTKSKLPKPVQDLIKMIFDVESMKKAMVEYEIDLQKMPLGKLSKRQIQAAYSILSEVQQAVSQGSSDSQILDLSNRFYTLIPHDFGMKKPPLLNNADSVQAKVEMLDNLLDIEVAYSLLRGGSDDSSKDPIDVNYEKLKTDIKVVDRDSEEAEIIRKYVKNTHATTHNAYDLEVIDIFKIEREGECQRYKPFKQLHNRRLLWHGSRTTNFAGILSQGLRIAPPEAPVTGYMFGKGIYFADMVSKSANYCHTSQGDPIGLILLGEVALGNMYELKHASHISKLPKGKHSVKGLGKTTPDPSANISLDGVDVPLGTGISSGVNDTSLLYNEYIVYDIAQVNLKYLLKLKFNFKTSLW

Structure (SMILES) | inhibition [%]
CC(C)N1CCN(Cc2cccc(-c3[nH]c4cc(F)cc5c4c3CCNC5=O)c2)CC1 | 56.6
O=C1NCCc2c(-c3cccc(CN4CCN(C(=O)C5CC5)CC4)c3)[nH]c3cc(F)cc1c23 | 46.1
Cc1ccc(-c2[nH]c3cc(F)cc4c3c2CCNC4=O)cc1[N+](=O)[O-] | 93.2
O=C1NCCc2c(-c3ccc(B(O)O)cc3)[nH]c3cc(F)cc1c23 | 67.4
CC1(NC(=O)OC(C)(C)C)CCN(Cc2cccc(-c3[nH]c4cc(F)cc5c4c3CCNC5=O)c2)CC1 | 59.7
CC(C)(C)OC(=O)NC1CCN(Cc2cccc(-c3[nH]c4cc(F)cc5c4c3CCNC5=O)c2)CC1 | 76.5
O=C1NCCc2c(-c3ccc(OCc4ccccc4)cc3)[nH]c3cc(F)cc1c23 | 50.6
Cc1cc(N2CCN(Cc3ccc(-c4[nH]c5cc(F)cc6c5c4CCNC6=O)cc3)CC2)n(-c2ccccc2)n1 | 47.2
O=Cc1ccc(-c2[nH]c3cc(F)cc4c3c2CCNC4=O)cc1 | 93.6
C[C@@H]1CN(Cc2ccc(-c3[nH]c4cc(F)cc5c4c3CCNC5=O)cc2)CCN1C(=O)OC(C)(C)C | 31.2
CC(=O)N1CCN(Cc2cccc(-c3[nH]c4cc(F)cc5c4c3CCNC5=O)c2)CC1 | 49.8
COc1cccc(-c2[nH]c3cc(F)cc4c3c2CCNC4=O)c1 | 72
COC(=O)c1ccc(-c2[nH]c3cc(F)cc4c3c2CCNC4=O)cc1 | 83.3

Further lines, results first:

inhibition [%] | Structure (SMILES)
94 | CCN(CC)Cc1ccc(-c2[nH]c3cc(F)cc4c3c2CCNC4=O)cc1
83.9 | CC(C)N1CCN(Cc2ccc(-c3[nH]c4cc(F)cc5c4c3CCNC5=O)cc2)CC1
83.1 | CN1CCN(Cc2ccc(-c3[nH]c4cc(F)cc5c4c3CCNC5=O)cc2)CC1
64.8 | NC1CCCN(Cc2cccc(-c3[nH]c4cc(F)cc5c4c3CCNC5=O)c2)C1 (configuration not stated)
98 | CNCc1ccc(-c2[nH]c3cc(F)cc4c3c2CCNC4=O)cc1 [RUCAPARIB]
74.2 | CC(C)(C)OC(=O)N1CCN(Cc2ccc(-c3[nH]c4cc(F)cc5c4c3CCNC5=O)cc2)CC1
95.7 | NC1CCN(Cc2ccc(-c3[nH]c4cc(F)cc5c4c3CCNC5=O)cc2)CC1
90.4 | C[C@@H]1CN(Cc2ccc(-c3[nH]c4cc(F)cc5c4c3CCNC5=O)cc2)CCN1
79.2 | CC1(N)CCN(Cc2cccc(-c3[nH]c4cc(F)cc5c4c3CCNC5=O)c2)CC1
82.9 | CC(=O)N1CCN(Cc2ccc(-c3[nH]c4cc(F)cc5c4c3CCNC5=O)cc2)CC1
84.5 | O=C1NCCc2c(-c3ccc(CN4CCN(CCO)CC4)cc3)[nH]c3cc(F)cc1c23
69.3 | O=C1NCCc2c(-c3ccc(CN4CCCC(F)(F)C4)cc3)[nH]c3cc(F)cc1c23
88.9 | O=C1NCCc2c(-c3ccc(N4CCOCC4)cc3)[nH]c3cc(F)cc1c23
87.9 | NC1CCCN(Cc2ccc(-c3[nH]c4cc(F)cc5c4c3CCNC5=O)cc2)C1 (configuration not stated)

Target: T2, Poly [ADP-ribose] polymerase 2 (Homo sapiens, UniProt Q9UGN5)
T2 sequence (Q9UGN5 whole entry): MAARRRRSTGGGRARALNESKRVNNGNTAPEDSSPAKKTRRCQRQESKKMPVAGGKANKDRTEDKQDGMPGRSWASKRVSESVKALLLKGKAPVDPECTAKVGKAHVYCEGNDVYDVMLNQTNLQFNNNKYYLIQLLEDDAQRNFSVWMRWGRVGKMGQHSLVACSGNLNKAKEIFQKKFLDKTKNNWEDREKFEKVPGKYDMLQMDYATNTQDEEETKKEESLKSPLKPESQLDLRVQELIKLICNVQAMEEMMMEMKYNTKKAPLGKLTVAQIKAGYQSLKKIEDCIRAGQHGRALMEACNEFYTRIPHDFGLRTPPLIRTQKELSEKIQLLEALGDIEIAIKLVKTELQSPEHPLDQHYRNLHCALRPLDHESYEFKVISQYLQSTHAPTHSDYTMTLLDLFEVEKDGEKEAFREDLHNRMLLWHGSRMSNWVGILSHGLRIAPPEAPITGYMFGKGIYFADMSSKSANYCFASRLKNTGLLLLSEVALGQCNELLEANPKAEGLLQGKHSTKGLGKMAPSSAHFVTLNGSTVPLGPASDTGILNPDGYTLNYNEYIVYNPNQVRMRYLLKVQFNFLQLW
Test: Inhibition of human PARP2 using NAD+ as substrate at 5 nM incubated for 1 hr by ELISA relative to control
Conditions: not given

Structure (SMILES) | inhibition [%]
CC(C)N1CCN(Cc2cccc(-c3[nH]c4cc(F)cc5c4c3CCNC5=O)c2)CC1 | 29
O=C1NCCc2c(-c3cccc(CN4CCN(C(=O)C5CC5)CC4)c3)[nH]c3cc(F)cc1c23 | 20.7
Cc1ccc(-c2[nH]c3cc(F)cc4c3c2CCNC4=O)cc1[N+](=O)[O-] | 54.6
O=C1NCCc2c(-c3ccc(B(O)O)cc3)[nH]c3cc(F)cc1c23 | 42.7
CC1(NC(=O)OC(C)(C)C)CCN(Cc2cccc(-c3[nH]c4cc(F)cc5c4c3CCNC5=O)c2)CC1 | 41.8
CC(C)(C)OC(=O)NC1CCN(Cc2cccc(-c3[nH]c4cc(F)cc5c4c3CCNC5=O)c2)CC1 | 40.7
O=C1NCCc2c(-c3ccc(OCc4ccccc4)cc3)[nH]c3cc(F)cc1c23 | 36.4
Cc1cc(N2CCN(Cc3ccc(-c4[nH]c5cc(F)cc6c5c4CCNC6=O)cc3)CC2)n(-c2ccccc2)n1 | 29.7
O=Cc1ccc(-c2[nH]c3cc(F)cc4c3c2CCNC4=O)cc1 | 57.8
C[C@@H]1CN(Cc2ccc(-c3[nH]c4cc(F)cc5c4c3CCNC5=O)cc2)CCN1C(=O)OC(C)(C)C | 20.3
CC(=O)N1CCN(Cc2cccc(-c3[nH]c4cc(F)cc5c4c3CCNC5=O)c2)CC1 | 30.4
COc1cccc(-c2[nH]c3cc(F)cc4c3c2CCNC4=O)c1 | 35.9
COC(=O)c1ccc(-c2[nH]c3cc(F)cc4c3c2CCNC4=O)cc1 | 50.1

More lines, now with the values ahead:

inhibition [%] | Structure (SMILES)
35.2 | CCN(CC)Cc1ccc(-c2[nH]c3cc(F)cc4c3c2CCNC4=O)cc1
36.5 | CC(C)N1CCN(Cc2ccc(-c3[nH]c4cc(F)cc5c4c3CCNC5=O)cc2)CC1
42 | CN1CCN(Cc2ccc(-c3[nH]c4cc(F)cc5c4c3CCNC5=O)cc2)CC1
13.1 | NC1CCCN(Cc2cccc(-c3[nH]c4cc(F)cc5c4c3CCNC5=O)c2)C1 (configuration not stated)
77.6 | CNCc1ccc(-c2[nH]c3cc(F)cc4c3c2CCNC4=O)cc1 [RUCAPARIB]
33.8 | CC(C)(C)OC(=O)N1CCN(Cc2ccc(-c3[nH]c4cc(F)cc5c4c3CCNC5=O)cc2)CC1
63.8 | NC1CCN(Cc2ccc(-c3[nH]c4cc(F)cc5c4c3CCNC5=O)cc2)CC1
58.8 | C[C@@H]1CN(Cc2ccc(-c3[nH]c4cc(F)cc5c4c3CCNC5=O)cc2)CCN1
21.3 | CC1(N)CCN(Cc2cccc(-c3[nH]c4cc(F)cc5c4c3CCNC5=O)c2)CC1
28.7 | CC(=O)N1CCN(Cc2ccc(-c3[nH]c4cc(F)cc5c4c3CCNC5=O)cc2)CC1
25.1 | O=C1NCCc2c(-c3ccc(CN4CCN(CCO)CC4)cc3)[nH]c3cc(F)cc1c23
20.5 | O=C1NCCc2c(-c3ccc(CN4CCCC(F)(F)C4)cc3)[nH]c3cc(F)cc1c23
54.2 | O=C1NCCc2c(-c3ccc(N4CCOCC4)cc3)[nH]c3cc(F)cc1c23
33.5 | NC1CCCN(Cc2ccc(-c3[nH]c4cc(F)cc5c4c3CCNC5=O)cc2)C1 (configuration not stated)

Target: T1, Poly [ADP-ribose] polymerase 1
Test: Inhibition of human PARP1 using NAD+ as substrate incubated for 1 hr by ELISA
Conditions: not given

IC50 [µM] | Structure (SMILES)
0.00061 | CCN(CC)Cc1ccc(-c2[nH]c3cc(F)cc4c3c2CCNC4=O)cc1
0.00041 | NC1CCN(Cc2ccc(-c3[nH]c4cc(F)cc5c4c3CCNC5=O)cc2)CC1
0.00066 | C[C@@H]1CN(Cc2ccc(-c3[nH]c4cc(F)cc5c4c3CCNC5=O)cc2)CCN1
0.00131 | CC(=O)N1CCN(Cc2ccc(-c3[nH]c4cc(F)cc5c4c3CCNC5=O)cc2)CC1
0.00154 | O=C1NCCc2c(-c3ccc(CN4CCN(CCO)CC4)cc3)[nH]c3cc(F)cc1c23

Target: T2, Poly [ADP-ribose] polymerase 2
Test: Inhibition of human PARP2 using NAD+ as substrate incubated for 1 hr by ELISA
Conditions: not given

IC50 [µM] | Structure (SMILES)
0.0112 | CCN(CC)Cc1ccc(-c2[nH]c3cc(F)cc4c3c2CCNC4=O)cc1
0.00421 | NC1CCN(Cc2ccc(-c3[nH]c4cc(F)cc5c4c3CCNC5=O)cc2)CC1
0.00291 | C[C@@H]1CN(Cc2ccc(-c3[nH]c4cc(F)cc5c4c3CCNC5=O)cc2)CCN1
0.0064 | CC(=O)N1CCN(Cc2ccc(-c3[nH]c4cc(F)cc5c4c3CCNC5=O)cc2)CC1
0.00668 | O=C1NCCc2c(-c3ccc(CN4CCN(CCO)CC4)cc3)[nH]c3cc(F)cc1c23

Organism: Homo sapiens
Test: Selectivity index, ratio of IC50 for human PARP2 to IC50 for human PARP1
Conditions: not given

Ratio IC50 | Structure (SMILES)
4.9 | CC(=O)N1CCN(Cc2ccc(-c3[nH]c4cc(F)cc5c4c3CCNC5=O)cc2)CC1
4.3 | O=C1NCCc2c(-c3ccc(CN4CCN(CCO)CC4)cc3)[nH]c3cc(F)cc1c23

System: MX1
Test: Antiproliferative activity against human BRCA mutant MX1 cells assessed as inhibition of cell growth incubated for 48 hrs by MTT assay
Assay type: functional, cell-based
Conditions: MX1, 48 h

Structure (SMILES) | IC50 [µM]
CCN(CC)Cc1ccc(-c2[nH]c3cc(F)cc4c3c2CCNC4=O)cc1 | 49.3
CNCc1ccc(-c2[nH]c3cc(F)cc4c3c2CCNC4=O)cc1 [RUCAPARIB] | 6.51
NC1CCN(Cc2ccc(-c3[nH]c4cc(F)cc5c4c3CCNC5=O)cc2)CC1 | 65.4
C[C@@H]1CN(Cc2ccc(-c3[nH]c4cc(F)cc5c4c3CCNC5=O)cc2)CCN1 | 16.8

System: MCF7
Test: Antiproliferative activity against human MCF7 cells assessed as inhibition of cell growth incubated for 48 hrs by MTT assay
Assay type: functional, cell-based
Conditions: MCF7, 48 h

IC50 [µM] | Structure (SMILES)
80.6 | CCN(CC)Cc1ccc(-c2[nH]c3cc(F)cc4c3c2CCNC4=O)cc1
6.61 | CNCc1ccc(-c2[nH]c3cc(F)cc4c3c2CCNC4=O)cc1 [RUCAPARIB]
59.5 | NC1CCN(Cc2ccc(-c3[nH]c4cc(F)cc5c4c3CCNC5=O)cc2)CC1
46.5 | C[C@@H]1CN(Cc2ccc(-c3[nH]c4cc(F)cc5c4c3CCNC5=O)cc2)CCN1

System: A549
Test: Antiproliferative activity against human A549 cells assessed as inhibition of cell growth incubated for 48 hrs by MTT assay
Assay type: functional, cell-based
Conditions: A549, 48 h

IC50 [µM] | Structure (SMILES)
75.8 | CCN(CC)Cc1ccc(-c2[nH]c3cc(F)cc4c3c2CCNC4=O)cc1
32.2 | CNCc1ccc(-c2[nH]c3cc(F)cc4c3c2CCNC4=O)cc1 [RUCAPARIB]
85.9 | NC1CCN(Cc2ccc(-c3[nH]c4cc(F)cc5c4c3CCNC5=O)cc2)CC1
48.2 | C[C@@H]1CN(Cc2ccc(-c3[nH]c4cc(F)cc5c4c3CCNC5=O)cc2)CCN1

System: MDA-MB-436
Test: Antitumor activity against human BRCA1 mutant MDA-MB-436 cells xenografted athymic BALB/c mouse assessed as inhibition of tumor volume at 50 mg/kg/day, po administered for 18 days and measured twice weekly
Assay type: functional, organism-based
Conditions: time 18.0 day

Structure (SMILES) | Activity
C[C@@H]1CN(Cc2ccc(-c3[nH]c4cc(F)cc5c4c3CCNC5=O)cc2)CCN1 | Active

System: not listed separately
Test: Toxicity athymic BALB/c mouse xenografted with human BRCA1 mutant MDA-MB-436 cells assessed as change in body weight at 50 mg/kg/day, po administered for 18 days and measured twice weekly
Assay type: organism-based
Conditions: in vivo, 432 h, time 18 day

Structure (SMILES) | Activity
C[C@@H]1CN(Cc2ccc(-c3[nH]c4cc(F)cc5c4c3CCNC5=O)cc2)CCN1 | Toxic

System: Mus musculus
Test: In vivo inhibition of PARP1 in athymic BALB/c mouse xenografted with human BRCA1 mutant MDA-MB-436 cells assessed as prevention of PAR formation 50 mg/kg/day, po measured after 48 hrs by Western blot analysis
Assay type: functional, organism-based
Conditions: not given

Structure (SMILES) | inhibition
CNCc1ccc(-c2[nH]c3cc(F)cc4c3c2CCNC4=O)cc1 [RUCAPARIB] | Active
C[C@@H]1CN(Cc2ccc(-c3[nH]c4cc(F)cc5c4c3CCNC5=O)cc2)CCN1 | Active
